According to US10709715B2, “Method of treating hypertension” (Cipla Limited, priority 2017, dated 2020):
“And” between values parts separate entries of the source, which are not always exact repeats. Identical values can stand only once. Like-named read-outs stand apart in the source and are kept apart here.

Columns and labels:
[1] = system: rats with monocrotaline induced pulmonary arterial hypertension; experiment: Monocrotaline rat model for pulmonary arterial hypertension, dosing from Day 1 for 28 days (Example 1); assay type: in vivo, Male Sprague-Dawley rats; conditions: for Fulton index: Hypertrophy (RV/LV + S), Mean / RV/Body wt, Mean / Right Ventricular Pressure (RVP), Mean / Right Ventricular Systolic Pressure (RVSP), Mean / Right ventricle (RV), Mean: group mean; for Fulton index: Hypertrophy (RV/LV + S), Mean / RV/Body wt, Mean / Right Ventricular Pressure (RVP), Mean / Right Ventricular Systolic Pressure (RVSP), Mean / Right ventricle (RV), Mean / Fulton index: Hypertrophy (RV/LV + S) / RV/Body wt / Right Ventricular Pressure (RVP) / Right ventricle (RV) / Right Ventricular Systolic Pressure (RVSP): Day 28; for Fulton index: Hypertrophy (RV/LV + S) / RV/Body wt / Right Ventricular Pressure (RVP) / Right ventricle (RV) / Right Ventricular Systolic Pressure (RVSP): individual animals; for Right Ventricular Systolic Pressure (RVSP): MCT 50 mg/kg s.c.
Procedure: The studies were conducted for hemodynamic evaluation of temozolomide in anesthetized sprague dawley rats treated with monocrotaline (“MCT”) to induce pulmonary arterial hypertension. Sildenafil was used as an internal control to compare the effects of temozolomide.
(§1) The effects of temozolomide were evaluated in rats with monocrotaline induced pulmonary arterial hypertension using sildenafil as standard care treatment. Male Sprague-Dawley rats were orally administered vehicle, temozolomide (10 mg/kg given once daily every day for 28 days starting on Day 1), or sildenafil (100 mg/kg, administered once daily every day for 28 days starting on Day 1) (n=12 in each group). Rats received a single injection of monocrotaline (50 mg/kg, s.c.) on Study Day 1. On the twenty-eighth day following monocrotaline dosing, the rats were anesthetized with ketamine/xylazine for terminal monitoring of pulmonary and systemic arterial pressures along with heart rate.
Test Item: Vehicle (0.5% Methylcellulose+0.2% Tween 80 in deionized water, Temozolomide (10 mg/kg given once daily for 28 days; Sildenafil (100 mg/kg administered once daily)
(§2) Route of Administration: Oral
Study Design: The study was planned and conducted according to design depicted below in Table 1
Pulmonary arterial hypertension was induced by injecting monocrotaline (3 mL/Kg MCT in 50% DMSO in water) subcutaneously at a dose of 50 mg/kg of body weight to all the randomized Male Sprague-Dawley rats of Groups II, III,IV and V (except negative control group). Negative control group (Group I, DMSO group) received a single dose of 3 mL/kg 50% DMSO in water for injection subcutaneously. The positive control group (Group III) received 5 ml of vehicle every morning. The rats of temozolomide group (Group IV) were orally administered temozolomide (10 mg/kg given once daily for 28 days starting on Day 1) and rats of sildenafil group (Group V) were orally administered sildenafil (100 mg/kg given once daily for 28 days starting on Day 1) On the twenty-eighth day after monocrotaline dosing, the rats were anesthetized with ketamine/xylazine for terminal monitoring of pulmonary and systemic arterial pressures along with heart rate.

[2] = system: rats with monocrotaline induced pulmonary arterial hypertension; experiment: Monocrotaline rat model for treatment of pulmonary arterial hypertension, dosing Day 14 till Day 28 (Example 2); assay type: in vivo, Male Sprague-Dawley rats; conditions: for inhibition at 100 mg/kg / inhibition at 30 mg/kg: Rattus norvegicus, po; for inhibition at 100 mg/kg / % Inhibition of Fulton index : Hypertrophy (RV/LV + S) / inhibition at 30 mg/kg: positive control = 0.00; for Fulton index: Hypertrophy (RV/LV + S), Mean / Right Ventricle weight, Mean / Right Ventricular Pressure (RVP), Mean / Right Ventricular Systolic Pressure (RVSP), Mean / Right ventricle/Body weight, Mean: group mean; for Fulton index: Hypertrophy (RV/LV + S), Mean / Right Ventricle weight, Mean / Right Ventricular Pressure (RVP), Mean / Right Ventricular Systolic Pressure (RVSP), Mean / Right ventricle/Body weight, Mean / Fulton index: Hypertrophy (RV/LV + S) / Right Ventricle weight / Right Ventricular Pressure (RVP) / Right Ventricular Systolic Pressure (RVSP) / Right ventricle/Body weight: Day 28; for Fulton index: Hypertrophy (RV/LV + S) / Right Ventricle weight / Right Ventricular Pressure (RVP) / Right Ventricular Systolic Pressure (RVSP) / Right ventricle/Body weight: individual animals
Procedure: The studies were conducted for hemodynamic evaluation of Temozolomide in anesthetized Sprague Dawley rats treated with monocrotaline (“MCT”) to induce pulmonary arterial hypertension. Sildenafil was used as an internal control to compare the effects of temozolomide
as §1, with “temozolomide (30 mg/kg,” for “temozolomide (10 mg/kg”, “day” for “day for 28 days”, “Day 14 till Day 28),” for “Day 1),”, “mg/kg, given” for “mg/kg, administered”, “Day 14 till Day 28)” for “Day 1)”
Test Item: Vehicle (0.5% Methylcellulose+0.2% Tween 80 in deionized water, temozolomide (30 mg/kg given once daily starting on Day 14 till Day 28; Sildenafil (100 mg/kg, administered once daily starting on Day 14 till Day 28)
as §2
Study Design: The study was planned and conducted according to design depicted below in Table 7
Pulmonary arterial hypertension was induced by injecting 50 mg/kg dose of monocrotaline (3 mL/Kg MCT in 50% DMSO in water) subcutaneously to all the randomized Male Sprague-Dawley rats of Groups VII, VIII, IX, and X (except negative control group). Negative control group (Group VI, DMSO group) received a single dose of 3 mL/kg 50% DMSO in water for injection subcutaneously. Male Sprague-Dawley rats in groups VII, VIII, IX, and X were administered 50 mg/kg of body weight of monocrotaline in DMSO subcutaneously to induce PAH on day 1. The rats of vehicle positive control group (Group VIII) received 5 ml of vehicle every morning. The rats of the temozolomide group (Group IX) were orally administered Temozolomide (30 mg/kg given once daily starting on Day 14 till Day 28) and rats of sildenafil group (Group X) were orally administered sildenafil (100 mg/kg given once daily starting on Day 14 till Day 28). On the twenty-eighth day after monocrotaline dosing, the rats were anesthetized with ketamine/xylazine for terminal monitoring of pulmonary and systemic arterial pressures along with heart rate. It is understood that from day 1 till administration of test compounds i.e till day 14, rates of all groups were suffering from PAH due to administration of MCT. Thus the study was conducted to evaluate the efficacy of Temozolomide treatment for PAH. Sildenafil was used as an internal control to compare the effects of Temozolomide.

[3] = cited from earlier work
[4] = Sildenafil 100 mg/Kg p.o. QD 28 days from Day 1
[5] = Sildenafil 100 mg/Kg p.o. QD Day 14 till Day 28
[6] = Temozolomide 10 mg/Kg p.o. QD 28 days from Day 1
[7] = Temozolomide 30 mg/Kg p.o. QD Day 14 till Day 28
[8] = administered after a modified high-fat breakfast

SMILES: CCCc1nn(C)c2c(=O)[nH]c(-c3cc(S(=O)(=O)N4CCN(C)CC4)ccc3OCC)nc12 [Sildenafil]
- Fulton index: Hypertrophy (RV/LV + S), Mean [1, 4]: 0.312
- RV/Body wt, Mean [1, 4]: 0.0006
- Right Ventricular Pressure (RVP), Mean [1, 4]: 13.929 mmHg
- Right Ventricular Systolic Pressure (RVSP), Mean [1, 4]: 29.648 mmHg
- Right ventricle (RV), Mean [1, 4]: 0.247 g
- Fulton index: Hypertrophy (RV/LV + S) [1, 4]: 0.367 and 0.297 and 0.323 and 0.312 and 0.352 and 0.309 and 0.330 and 0.167 and 0.354
- RV/Body wt [1, 4]: 0.0009 and 0.0006 (4×) and 0.0007 (3×) and 0.0003
- Right Ventricular Pressure (RVP) [1, 4]: 11.481 mmHg and 15.226 mmHg and 11.673 mmHg and 14.427 mmHg and 14.139 mmHg and 16.310 mmHg and 12.947 mmHg and 12.352 mmHg and 16.804 mmHg
- Right ventricle (RV) [1, 4]: 0.440 g and 0.228 g and 0.207 g and 0.232 g and 0.308 g and 0.229 g and 0.261 g and 0.083 g and 0.236 g
- Right Ventricular Systolic Pressure (RVSP) [1, 4]: 23.627 mmHg and 31.322 mmHg and 24.486 mmHg and 29.450 mmHg and 31.316 mmHg and 32.922 mmHg and 34.262 mmHg and 25.579 mmHg and 33.864 mmHg
- inhibition at 100 mg/kg ([2]; Sildenafil 100 mg/Kg p.o. QD Day 14 till Day 28, read-out: % Inhibition of Right Ventricular Pressure (RVP)): 58.3%
- inhibition at 100 mg/kg ([2]; Sildenafil 100 mg/Kg p.o. QD Day 14 till Day 28, read-out: % Inhibition of Right Ventricular Systolic Pressure (RVSP)): 55.1%
- % Inhibition of Fulton index : Hypertrophy (RV/LV + S) [2, 5]: 30.70%
- Fulton index: Hypertrophy (RV/LV + S), Mean [2, 5]: 0.384
- Right Ventricle weight, Mean [2, 5]: 0.286 gms
- Right Ventricular Pressure (RVP), Mean [2, 5]: 14.302 mmHg
- Right Ventricular Systolic Pressure (RVSP), Mean [2, 5]: 30.803 mmHg
- Right ventricle/Body weight, Mean [2, 5]: 0.0008
- Fulton index: Hypertrophy (RV/LV + S) [2, 5]: 0.464 and 0.393 and 0.306 and 0.337 and 0.389 and 0.415
- Right Ventricle weight [2, 5]: 0.309 gms and 0.220 gms and 0.259 gms and 0.256 gms and 0.308 gms and 0.363 gms
- Right Ventricular Pressure (RVP) [2, 5]: 10.916 mmHg and 11.268 mmHg and 17.424 mmHg and 11.506 mmHg and 16.211 mmHg and 18.486 mmHg
- Right Ventricular Systolic Pressure (RVSP) [2, 5]: 22.951 mmHg and 27.908 mmHg and 33.917 mmHg and 23.264 mmHg and 40.201 mmHg and 36.579 mmHg
- Right ventricle/Body weight [2, 5]: 0.0009 (2×) and 0.0006 and 0.0007 (2×) and 0.0012

SMILES: Cn1nnc2c(C(N)=O)ncn2c1=O [Temozolomide]
- activity in controlling or reducing PAH ([1]; Temozolomide 10 mg/kg vs Sildenafil 100 mg/kg): comparable among with Sildenafil activity
- systolic and mean pulmonary arterial pressures compared to the vehicle group ([1]; after 28 days, 10 mg/kg/QD/day): differences in systolic and mean pulmonary arterial pressures
- Fulton index: Hypertrophy (RV/LV + S), Mean [1, 6]: 0.342
- RV/Body wt, Mean [1, 6]: 0.0007
- Right Ventricular Pressure (RVP), Mean [1, 6]: 15.548 mmHg
- Right Ventricular Systolic Pressure (RVSP), Mean [1, 6]: 33.732 mmHg
- Right ventricle (RV), Mean [1, 6]: 0.227 g
- Fulton index: Hypertrophy (RV/LV + S) [1, 6]: 0.325 and 0.333 and 0.450 and 0.294 and 0.406 and 0.287 and 0.277 and 0.255 and 0.519 and 0.345 and 0.273
- RV/Body wt [1, 6]: 0.0006 (3×) and 0.0008 (2×) and 0.0005 (4×) and 0.0011 and 0.0007
- Right Ventricular Pressure (RVP) [1, 6]: 11.178 mmHg and 15.927 mmHg and 16.493 mmHg and 19.994 mmHg and 15.532 mmHg and 12.593 mmHg and 16.840 mmHg and 17.431 mmHg and 16.896 mmHg and 16.462 mmHg and 11.679 mmHg
- Right ventricle (RV) [1, 6]: 0.244 g and 0.220 g (2×) and 0.298 g and 0.202 g and 0.268 g and 0.218 g and 0.197 g and 0.167 g and 0.311 g and 0.156 g
- Right Ventricular Systolic Pressure (RVSP) [1, 6]: 29.626 mmHg and 33.857 mmHg and 35.059 mmHg and 38.531 mmHg and 30.456 mmHg and 30.333 mmHg and 36.128 mmHg and 35.368 mmHg and 40.220 mmHg and 33.582 mmHg and 27.895 mmHg
- inhibition at 30 mg/kg ([2]; Temozolomide 30 mg/Kg p.o. QD Day 14 till Day 28, read-out: % Inhibition of Right Ventricular Pressure (RVP)): 53.9%
- inhibition at 30 mg/kg ([2]; Temozolomide 30 mg/Kg p.o. QD Day 14 till Day 28, read-out: % Inhibition of Right Ventricular Systolic Pressure (RVSP)): 44.8%
- % Inhibition of Fulton index : Hypertrophy (RV/LV + S) [2, 7]: 19.83%
- activity in treatment of PAH ([2]; Temozolomide 30 mg/kg vs Sildenafil 100 mg/kg): comparable among with Sildenafil activity
- systolic and mean pulmonary arterial pressures compared to the vehicle group ([2]; after 28 days, 30 mg/kg/QD/day, Day 14 till Day 28): differences in systolic and mean pulmonary arterial pressures
- Fulton index: Hypertrophy (RV/LV + S), Mean [2, 7]: 0.444
- Right Ventricle weight, Mean [2, 7]: 0.274 gms
- Right Ventricular Pressure (RVP), Mean [2, 7]: 15.802 mmHg
- Right Ventricular Systolic Pressure (RVSP), Mean [2, 7]: 37.936 mmHg
- Right ventricle/Body weight, Mean [2, 7]: 0.0009
- Fulton index: Hypertrophy (RV/LV + S) [2, 7]: 0.502 and 0.480 and 0.481 (2×) and 0.382 and 0.357 and 0.485 and 0.506 and 0.341 and 0.427
- Right Ventricle weight [2, 7]: 0.311 gms and 0.286 gms and 0.210 gms and 0.237 gms and 0.273 gms and 0.343 gms and 0.232 gms and 0.245 gms and 0.283 gms and 0.318 gms
- Right Ventricular Pressure (RVP) [2, 7]: 15.151 mmHg and 19.476 mmHg and 14.308 mmHg and 12.295 mmHg and 15.993 mmHg and 21.577 mmHg and 22.479 mmHg and 12.349 mmHg and 12.363 mmHg and 12.035 mmHg
- Right ventricle/Body weight [2, 7]: 0.0011 (3×) and 0.0010 and 0.0008 (3×) and 0.0007 and 0.0009 (2×)
- Right Ventricular Systolic Pressure (RVSP) ([2]; Temozolomide 30 mg/Kg p.o. QD Day 14 till Day 28, MCT 50 mg/kg s.c. Day 1): 39.693 mmHg and 42.429 mmHg and 31.561 mmHg and 36.888 mmHg and 37.763 mmHg and 48.504 mmHg and 45.392 mmHg and 33.928 mmHg and 29.989 mmHg and 33.218 mmHg
- AUC decrease [3, 8]: 9%
- Mean peak plasma concentration decrease [3, 8]: 32%
- median Tmax [3, 8]: 2.25 h
- median Tmax increase [3, 8]: 2 fold
- absorption ([3]; oral administration): rapidly and completely absorbed
